ChEMBL document CHEMBL5260827, “Fructose-1,6-bisphosphatase inhibitors: A new valid approach for management of type 2 diabetes mellitus” (Eur J Med Chem, 2017)

Experiments:
[1] = target: T1, Fructose-1,6-bisphosphatase 1 (Homo sapiens, UniProt P09467); assay: Inhibition of human liver FBPase
T1 sequence (P09467 whole entry): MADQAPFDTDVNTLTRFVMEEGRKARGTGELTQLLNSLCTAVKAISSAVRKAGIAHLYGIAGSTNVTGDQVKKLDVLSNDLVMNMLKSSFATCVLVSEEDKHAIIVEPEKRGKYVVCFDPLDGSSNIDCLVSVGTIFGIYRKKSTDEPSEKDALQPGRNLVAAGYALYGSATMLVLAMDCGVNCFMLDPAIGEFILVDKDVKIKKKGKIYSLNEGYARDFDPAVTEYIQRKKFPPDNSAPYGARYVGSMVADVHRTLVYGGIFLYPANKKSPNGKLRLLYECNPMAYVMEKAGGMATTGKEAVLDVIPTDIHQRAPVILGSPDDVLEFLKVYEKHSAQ

[2] = target: T1, Fructose-1,6-bisphosphatase 1; assay: Inhibition of human liver FBPase by spectrophotometric method; format: tissue-based
[3] = target: T1, Fructose-1,6-bisphosphatase 1; assay: Inhibition of human liver FBPase expressed in Escherichia coli BL21 (DE3) measured after 48 hrs by spectrophotometry analysis
[4] = species on record: Oryctolagus cuniculus
Description: Binding affinity to recombinant rabbit FBPase expressed in Escherichia coli assessed as maximal activity

[5] = target: T1, Fructose-1,6-bisphosphatase 1; assay: biochemical
[6] = Inhibition of Cynomolgus monkey FBPase; set-up: species or system Macaca fascicularis
[7] = Half life in Cynomolgus monkey at 10 mg/kg, po; format: ADME, organism-based, Macaca fascicularis; settings: in vivo
[8] = Cmax in Cynomolgus monkey at 10 mg/kg, po measured after 3 hrs by LC/MS/MS analysis; format: ADME, organism-based, Macaca fascicularis; set-up: dose 10 mg/kg, time 3 hrs, route po; settings: in vivo
[9] = test system: Hepatocyte; assay: Inhibition of glucose production in human hepatocyte assessed as reduction in […]; format: functional, cell-based
[10] = test system: Rattus norvegicus; assay: Hypoglycemic activity in ZDF rats assessed as reduction in blood glucose level at 10 to 300 mg/kg, po; format: functional; settings: dose 10-300 mg/kg
[11] = Tmax in Cynomolgus monkey at 10 mg/kg, po upto 24 hrs by LC/MS/MS analysis; format: ADME, organism-based, Macaca fascicularis; settings: in vivo
[12] = test system: Mus musculus; assay: Hypoglycemic activity in db/db mouse assessed as reduction in blood glucose level at 300 mg/kg, po administered for 5 days; format: functional; settings: time 5 day
[13] = Inhibition of rat FBPase
[14] = Oral bioavailability in cynomolgus monkey at 10 mg/kg; format: ADME, organism-based, Macaca fascicularis; settings: in vivo

**Q.** For `COc1ccc(CC(=O)Nc2cccc(-c3nnc(-c4ccc(C)cc4)o3)c2)cc1OC`, which IC50 [1] is on record?
**A.** Its IC50 is 4510 nM.

**Q.** With `CCCC(C)C(=O)c1sc(N)nc1-c1ccc(P(=O)(O)O)o1` (stereo unspecified) as the compound, how does the IC50 [2] read?
**A.** The IC50 was 11 nM.

**Q.** For `COC(=O)c1ccc(S(=O)(=O)n2cccc2)cc1`, which IC50 [3] is on record?
**A.** The IC50 was 32 nM.

**Q.** For `CCOc1cc2ncnc(Nc3cccc(Cl)c3)c2cc1OCC`, which Km [4] is on record?
**A.** The Km was 2.7 µM.

**Q.** With `CSc1nc(N)c2nc(-c3ccc(P(=O)(O)O)o3)n(CC(C)(C)C)c2n1` as the compound, how does the IC50 [2] read?
**A.** The IC50 was 700 nM.

**Q.** With `O=P(O)(O)OC[C@H]1O[C@H](COP(=O)(O)O)[C@@H](O)[C@@H]1O` as the compound, how does the IC50 [2] read?
**A.** Its IC50 is 2000 nM.

**Q.** With `CC1=CC=CN2C(CC(C)C)C(c3ccc(P(=O)(O)O)o3)=NC12` (stereo unspecified) as the compound, how does the IC50 [2] read?
**A.** Its IC50 is 1600 nM.

**Q.** Which IC50 [2] does the source give for `CC1SC(=O)NN=C1c1ccc2[nH]c(-c3ccc(-n4ccnc4)cc3)nc2c1` (stereo unspecified) here?
**A.** The IC50 was 36000 nM.

**Q.** For `CC(C)Cn1c(C2CCC(P(=O)(O)O)O2)nc2c(N)c(F)cc(CCBr)c21` (stereo unspecified), which IC50 [2] is on record?
**A.** Its IC50 is 34 nM.

**Q.** Which IC50 [2] does the source give for `N#Cc1ccc(C(C(=O)NCCc2ccc(O)cc2)N2C(=O)C3Cc4ccc(O)cc4CN3C(=O)C2CC2CCCCC2)cc1` (stereo unspecified) here?
**A.** Its IC50 is 370 nM.

**Q.** With `CSc1nc(N)c2nc(-c3ccc(P(=O)(O)O)o3)n(CC(C)C)c2n1` as the compound, how does the IC50 [5] read?
**A.** Its IC50 is 700000 nM.

**Q.** Which IC50 [1] does the source give for `COc1ccc(CC(=O)Nc2cccc(-c3nnc(-c4cccc(Cl)c4)o3)c2)cc1OC` here?
**A.** The IC50 was 15400 nM.

**Q.** With `CC(C)(C)C(=O)c1sc(N)nc1-c1ccc(P(=O)(O)O)o1` as the compound, how does the IC50 [6] read?
**A.** Its IC50 is 121 nM.

**Q.** And the half-life [7]?
**A.** Its half-life is 7.6 h.

**Q.** And the Cmax [8]?
**A.** Its Cmax is 2100 ng/mL.

**Q.** And the EC50 [9]?
**A.** The EC50 was 140 nM.

**Q.** And the Activity [10]?
**A.** The Activity was 200 mg/dL.

**Q.** What about the Tmax [11] of the same compound?
**A.** Its Tmax is 3.3 h.

**Q.** And the Activity [12]?
**A.** The Activity was 350 mg/dL.

**Q.** What about the IC50 [13] of the same compound?
**A.** The IC50 was 189 nM.

**Q.** And the bioavailability [14]?
**A.** The bioavailability was 52%.
